Measurements: patent publication US6534659B2, “Sufidomaidocarboxylic acids, method for production thereof, and use therefor” (Nippon Shokubai Co., Ltd., priority 2000, dated 2003)

Tests used:
[1] = Ability to inhibit corrosion by polarization resistance (Rp), iron electrodes; design: ability to inhibit corrosion: concentration or dose not given beside the values; settings: for Ability to inhibit corrosion After 20 min. / Ability to inhibit corrosion After 15 hrs / Ability to inhibit corrosion Peak: Electrode Fe; for ability to inhibit corrosion / Rp: iron electrode, sodium salt
[2] = Ability to inhibit corrosion by polarization resistance (Rp), low-carbon steel electrodes (X65); settings: Electrode X65

SMILES | Ability to inhibit corrosion After 20 min. [1] | Ability to inhibit corrosion After 15 hrs [1] | Ability to inhibit corrosion Peak [1] | ability to inhibit corrosion ([1]; after the elapse of 20 minutes) | ability to inhibit corrosion ([1]; after the elapse of 15 hours) | ability to inhibit corrosion ([1]; peak) | Ability to inhibit corrosion After 20 min. [2] | Ability to inhibit corrosion After 15 hrs [2] | Ability to inhibit corrosion Peak [2] | Rp ([1]; after the elapse of 20 minutes) | Rp ([1]; after the elapse of 15 hours) | Rp ([1]; peak) | ability to inhibit corrosion ([1]; after the elapse of 25 minutes)
CC1(C)SCCN1C(=O)c1ccccc1C(=O)O [Example 1, N-(2-carboxybenzoyl)-2,2-dimethylthiazolidine] | 48% | 96.3% | 98.5% | 47.6% | 96.3% | 98.5% | 71.0% | 94.7% | 97.2% | – | – | – | –
CC1(C)SCCN1C(=O)C=CC(=O)O [Example 2, N-(2-carboxylvinylcarbonyl)-2,2-dimethylthiazolidine] | – | – | – | 55.0% | 95.5% | 98.1% | – | – | – | 200 Ω | 2000 Ω | about 4800 Ω | –
CC1(C)SCCN1C(=O)CCC(=O)O [Example 3, N-(2-carboxylethylcarbonyl)-2,2-dimethylthiazolidine] | 71.4% | 97.8% | 98.1% | – | 97.8% | 98.1% | – | – | – | – | – | – | 71.4%
CC1(C)SCCN1C(=O)C1CCCCC1C(=O)O (stereo not drawn) [Example 4, N-(2-carboxylcyclohexylcarbonyl)-2,2-dimethylthiazolidine] | – | – | – | 95.9% | 98.3% | 98.8% | – | – | – | 640 Ω | 5300 Ω | about 7450 Ω | –
